Source: patent US20260207765A1, “COVALENTLY-MODIFIED STEROID ACID-PEPTIDES HAVING ENHANCED STABILITY AND/OR BIOLOGICAL ACTIVITY” (priority 2022, published 2026)
Positions of bridges follow the written chain, without caps; N, C: chain ends. Residues, ends and D or L forms follow the SMILES beside them. Chains are numbered I, II in the order given. *: point of attachment. Chenodeoxycholyl = C[C@H](CCC(=O)*)[C@H]1CC[C@H]2[C@@H]3[C@H](O)C[C@@H]4C[C@H](O)CC[C@]4(C)[C@H]3CC[C@]12C

Key:
[1] = Stability testing (impurities by HPLC); format: physicochemical
Description: GMP synthesis of the CDCA-C-SV40 monomer yielded a white powder and the results of initial stability testing is summarized below:
As shown above, two main impurities were detected by HPLC relating to the reactivity of the free thiol group of the CDCA-C-SV40 monomer, namely impurities resulting from oxidation of the thiol group (Impurity A) and the formation an intermolecular disulfide bond via the thiol groups of two CDCA-C-SV40 monomers, producing a (CDCA-C-SV40)2 dimer (Impurity B).
To attempt to improve stability, the synthesis protocol of CDCA-C-SV40 was modified to produce the conjugate directly in its dimerized form (Impurity B). […] At 25° C., total impurities rose only slightly from 1.6% at Day 0 to 2.1% after 3 months. At 40° C., total impurities rose from 1.6% at Day 0 to 1.7% after 5 days, 2.4% after 10 days, and to 3.7% after 30 days.

[2] = tested on: EL4 lymphoma cells; experiment: Apoptosis analysis / kill curve by flow cytometry (Annexin-V, PI); format: cell-based, mouse
Procedure: (§1) Apoptosis analysis was conducted by flow-cytometry. Briefly, target cells were first treated then washed. Treated cells were then re-suspended in Annexin-V staining buffer prior to staining with Annexin-V and propidium iodine (PI). Fifteen minutes later, cells were washed prior to analysis using BD FACS™ Diva on CANTOII™.

[3] = tested on: murine MSCs; experiment: Maximum tolerated dose on murine MSCs over 24 h; format: cell-based; details: 50 μM
[4] = tested on: B16 melanoma cells; experiment: Apoptosis analysis by flow cytometry; format: cell-based; details: 95 and 190 μM
Procedure: as §1

[5] = tested on: 4T1 breast cancer cells; experiment: Apoptosis analysis by flow cytometry; format: cell-based; details: 95 and 190 μM
Procedure: as §1

[6] = tested on: CT-26 colon carcinoma cells; experiment: Apoptosis analysis by flow cytometry; format: cell-based; details: 95 and 190 μM
Procedure: as §1

[7] = tested on: E0771 breast cancer cells; experiment: Apoptosis analysis by flow cytometry; format: cell-based; details: 95 and 190 μM
Procedure: as §1

[8] = tested on: JIMT-1 breast cancer cells; experiment: Cytotoxicity of steroid acid-peptide conjugates in JIMT-1 cells; format: cell-based; details: 6.4 μM
Procedure: as §1
50 mg of CDCA-C-SV40 monomers (or other steroid acid-peptide monomers) were resuspended in 200-500 μL of DMSO. 10 eq of N,N-Diisopropylethylamine (DIPEA) was added to the mixture and incubated in a thermomixer at 37° C. with agitation (1000 rpm) overnight, enabling dimerization of the monomers via their N-terminal cysteine thiol groups to produce (CDCA-C-SV40)2 or other dimers. The samples were then analyzed by UPLC-MS to evaluate dimer formation efficiency. Cell toxicity was evaluated via a Cell Toxicity assay (PrestoBlue™).

[9] = tested on: wild-type MSC and B3Z reporter system; experiment: Antigen cross-presentation, wild-type MSC and B3Z reporter system; details: 100 μM

CC(C)[C@H](NC(=O)[C@H](CCCCN)NC(=O)[C@H](CCCNC(=N)N)NC(=O)[C@H](CCCCN)NC(=O)[C@H](CCCCN)NC(=O)[C@H](CCCCN)NC(=O)[C@@H]1CCCN1C(=O)CNC(=O)[C@H](Cc1ccc(O)cc1)NC(=O)CNC(=O)[C@H](CSSC[C@H](NC(=O)CC[C@@H](C)[C@H]1CC[C@H]2[C@@H]3[C@H](O)C[C@@H]4C[C@H](O)CC[C@]4(C)[C@H]3CC[C@]12C)C(=O)NCC(=O)N[C@@H](Cc1ccc(O)cc1)C(=O)NCC(=O)N1CCC[C@H]1C(=O)N[C@@H](CCCCN)C(=O)N[C@@H](CCCCN)C(=O)N[C@@H](CCCCN)C(=O)N[C@@H](CCCNC(=N)N)C(=O)N[C@@H](CCCCN)C(=O)N[C@H](C(=O)NCC(=O)NCC(=O)O)C(C)C)NC(=O)CC[C@@H](C)[C@H]1CC[C@H]2[C@@H]3[C@H](O)C[C@@H]4C[C@H](O)CC[C@]4(C)[C@H]3CC[C@]12C)C(=O)NCC(=O)NCC(=O)O [(CDCA-C-SV40)2] (I: Chenodeoxycholyl-CGYGPKKKRKVGG-OH / II: Chenodeoxycholyl-CGYGPKKKRKVGG-OH; disulfide I:1-II:1)
stability of dimer compared with corresponding monomer [1]: markedly higher stability
cytotoxicity ([2]; 95 and 190 μM): potent cytotoxicity
EC50 ([2]; EL4 lymphoma cells, flow cytometry, read-out: EC50 (cell death / kill curve)): 3.2 µM
MSCs growth [3]: diminished but was still present
cytotoxicity [4]: potent cytotoxicity
cytotoxicity [5]: potent cytotoxicity
cytotoxicity [6]: potent cytotoxicity
cytotoxicity [7]: potent cytotoxicity
cytotoxicity [8]: potent cytotoxicity
cell death of MSCs [9]: significant cell death
